Like-named read-outs stand apart in the source and are kept apart here. Bounds are passed on as bounds.

For one assay, the target named is T1, KRas G12C mutant (Homo sapiens, UniProt P01116, G12C).
T1 construct: made in house
As to the kind of experiment: Ras GTP binding domain inhibition assay (labeled-GTP competition, cell-free). In a few lines:
(§1)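 Labeled-GTP competition read out as bound Cy3/Cy5-GTP fluorescence after washes, with 100 nM tracer for 45 min at RT. Before tracer, compounds at 20 μM, or a dilution series for IC50, sat 3 h at RT on the Ni-immobilized His-tagged GTPase. Sos GEF (10-30 μg/mL) was optionally present for the last hour.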

The next assay addresses T2, KRas G12D mutant (Homo sapiens, UniProt P01116, G12D).
T2 construct: made in house
The description is as above. In short, it runs like this:
as §1

Another assay addresses T3, KRas Q61H mutant (Homo sapiens, UniProt P01116, Q61H).
T3 construct: made in house
The assay is described as above. The following applies: at 20 μM. In a few lines: as §1

Assay [1] has as its system Akt phosphorylation in Panc-1 cells. As to the kind of experiment: Western AKT cell-based phosphorylation assay. The settings on record: at 10 μM, values in brackets < > are activation %, not inhibition. Set-up: species or system human. In a few lines: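 Phospho-Akt (Ser473) western blot of Panc-1 lysates, with Ponceau S to confirm uniform loading. Before lysis, cells were serum-starved overnight (0.5% FBS), incubated 6 h at 37° C with 10 μM compound in 0.3% DMSO and stimulated 15 min with 1.5 ng/ml EGF.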

For the next assay, the target named is KRas wild type (Homo sapiens, UniProt P01116). As to the kind of experiment: Ras GTP binding domain inhibition assay (labeled-GTP competition, cell-free). Details: made in house. In short, it runs like this: as §1
Another assay addresses Rac-1 (Homo sapiens, UniProt P63000). The description is as above. Set-up: made in house. In a few lines:
as §1

For the next assay, the target named is Rho-A (Homo sapiens, UniProt P61586). The assay is described as above. Set-up: made in house. In a few lines:
as §1

Where [2] appears, read: with SOS, read-out: KRas G12C mutant + SOS: % inh.
The mark [3] stands for this setting: without SOS, read-out: KRas G12C mutant: % inh.
[4] abbreviates: with SOS, read-out: KRas G12D mutant + SOS: % inh.
The mark [5] stands for this setting: without SOS, read-out: KRas G12D mutant: % inh.
Where [6] appears, read: with SOS, read-out: KRas Q61H mutant + SOS: % inh.
The mark [7] stands for this setting: without SOS, read-out: KRas Q61H mutant: % inh.
[8] abbreviates: with SOS, read-out: KRas wild type + SOS: % inh.
The mark [9] stands for this setting: without SOS, read-out: KRas wild type: % inh.
The mark [10] stands for this setting: with SOS, read-out: Rac-1 + SOS: % inh.
Setting [11] is: without SOS, read-out: Rac-1: % inh.
Where [12] appears, read: with SOS, read-out: Rho-A + SOS: % inh.
Where [13] appears, read: without SOS, read-out: Rho-A: % inh.

On to `Cc1c(-c2ccn(C(C)C)n2)sc2nc(-c3nccn3C)nc(NC3CCOC3)c12` (racemic) [Compound 37, rac-6-(1-Isopropyl-1H-pyrazol-3-yl)-5-methyl-2-(1-methyl-1H-imidazol-2-yl)-N-(tetrahydrofuran-3-yl)thieno[2,3-d]pyrimidin-4-amine], for which the inhibition at 20 µM on KRas G12C mutant (setting [2]), on KRas G12C mutant (setting [3]), at KRas G12D mutant (setting [4]), on KRas G12D mutant (setting [5]), at KRas Q61H mutant (setting [6]) and on KRas Q61H mutant (setting [7]) was 76 to 100% throughout. In addition, the inhibition at 20 µM at KRas wild type (setting [8]), at KRas wild type (setting [9]), on Rac-1 (setting [10]), at Rac-1 (setting [11]), at Rho-A (setting [12]) and on Rho-A (setting [13]) was 76 to 100% throughout. For the same compound, the “% inh of AKT phosphorylation in PANC-1” value in assay [1] is 0 (0% inhibition).

Regarding `COCC1CCN(c2nc(-c3nccn3C)nc3sc(-c4ccn(C(C)C)n4)c(C)c23)C1` (racemic) [Compound 38, rac-6-(1-Isopropyl-1H-pyrazol-3-yl)-4-(3-(methoxymethyl)pyrrolidin-1-yl)-5-methyl-2-(1-methyl-1H-imidazol-2-yl)thieno[2,3-d]pyrimidine], the inhibition at 20 µM was in the range of 76 to 100% on KRas G12C mutant (setting [2]); 51 to 75% on KRas G12C mutant (setting [3]); 76 to 100% at KRas G12D mutant (setting [4]); 51 to 75% on KRas G12D mutant (setting [5]); 76 to 100% on KRas Q61H mutant (setting [6]); 76 to 100% on KRas Q61H mutant (setting [7]). In addition, the inhibition at 20 µM on KRas wild type (setting [8]), on KRas wild type (setting [9]), on Rac-1 (setting [10]), at Rac-1 (setting [11]), on Rho-A (setting [12]) and on Rho-A (setting [13]) was 76 to 100% each time. Further, the “% inh of AKT phosphorylation in PANC-1” value in assay [1] was “B (26-50% inhibition)”.

As for `COC1CCCN(c2nc(-c3nccn3C)nc3sc(-c4ccn(C(C)C)n4)c(C)c23)C1` (racemic) [Compound 40, rac-6-(1-Isopropyl-1H-pyrazol-3-yl)-4-(3-methoxypiperidin-1-yl)-5-methyl-2-(1-methyl-1H-imidazol-2-yl)thieno[2,3-d]pyrimidine], the inhibition at 20 µM was 76 to 100% on KRas G12C mutant (setting [2]); 51 to 75% at KRas G12C mutant (setting [3]); 26 to 50% on KRas G12D mutant (setting [4]); 26 to 50% on KRas G12D mutant (setting [5]); 76 to 100% on KRas Q61H mutant (setting [6]); 51 to 75% at KRas Q61H mutant (setting [7]). For the same compound, the inhibition at 20 µM was in the range of 76 to 100% at KRas wild type (setting [8]); 76 to 100% on KRas wild type (setting [9]); 51 to 75% on Rac-1 (setting [10]); 51 to 75% at Rac-1 (setting [11]); 76 to 100% at Rho-A (setting [12]); 76 to 100% on Rho-A (setting [13]). The “% inh of AKT phosphorylation in PANC-1” value in assay [1] was “D (76-100% inhibition)”.

For `COCC1COCCN1c1nc(-c2nccn2C)nc2sc(-c3ccn(C(C)C)n3)c(C)c12` (racemic) [Compound 41, rac-4-(6-(1-Isopropyl-1H-pyrazol-3-yl)-5-methyl-2-(1-methyl-1H-imidazol-2-yl)thieno[2,3-d]pyrimidin-4-yl)-3-(methoxymethyl)morpholine], the inhibition at 20 µM at KRas G12C mutant (setting [2]) is 51 to 75%; on KRas G12C mutant (setting [3]), 51 to 75%; on KRas G12D mutant (setting [4]), 26 to 50%; on KRas G12D mutant (setting [5]) it was 0%; at KRas Q61H mutant (setting [6]), 26 to 50%; on KRas Q61H mutant (setting [7]), 51 to 75%. In addition, the inhibition at 20 µM was in the range of 51 to 75% at KRas wild type (setting [8]); 51 to 75% at KRas wild type (setting [9]); 76 to 100% on Rac-1 (setting [10]); 76 to 100% on Rac-1 (setting [11]); 76 to 100% at Rho-A (setting [12]); 51 to 75% at Rho-A (setting [13]). In assay [1], the “% inh of AKT phosphorylation in PANC-1” value is 0 (0% inhibition).

`CO[C@H]1CC(Nc2nc(-c3nccn3C)nc3sc(-c4ccn(C(C)C)n4)c(C)c23)C[C@@H]1OC` (racemic) [Compound 44, rac-N-((3S,4S)-3,4-Dimethoxycyclopentyl)-6-(1-isopropyl-1H-pyrazol-3-yl)-5-methyl-2-(1-methyl-1H-imidazol-2-yl)thieno[2,3-d]pyrimidin-4-amine]: the inhibition at 20 µM at KRas G12C mutant (setting [2]) was 76 to 100%; on KRas G12C mutant (setting [3]) it was 76 to 100%; on KRas G12D mutant (setting [4]), 76 to 100%; on KRas G12D mutant (setting [5]), 51 to 75%; on KRas Q61H mutant (setting [6]), 76 to 100%; at KRas Q61H mutant (setting [7]) it was 76 to 100%. Besides, the inhibition at 20 µM at KRas wild type (setting [8]), on KRas wild type (setting [9]), at Rac-1 (setting [10]), on Rac-1 (setting [11]), at Rho-A (setting [12]) and on Rho-A (setting [13]) was 76 to 100% throughout. The “% inh of AKT phosphorylation in PANC-1” value in assay [1] is “<A>”.

In the case of `COCC1CN(c2nc(-c3nccn3C)nc3sc(-c4ccn(C(C)C)n4)c(C)c23)CCO1` (racemic) [Compound 45, rac-4-(6-(1-Isopropyl-1H-pyrazol-3-yl)-5-methyl-2-(1-methyl-1H-imidazol-2-yl)thieno[2,3-d]pyrimidin-4-yl)-2-(methoxymethyl)morpholine], the inhibition at 20 µM at KRas G12C mutant (setting [2]) was 76 to 100%; on KRas G12C mutant (setting [3]), 51 to 75%; at KRas G12D mutant (setting [4]), 76 to 100%; on KRas G12D mutant (setting [5]), 76 to 100%; at KRas Q61H mutant (setting [6]), 76 to 100%; at KRas Q61H mutant (setting [7]) it was 76 to 100%. The inhibition at 20 µM on KRas wild type (setting [8]), at KRas wild type (setting [9]), at Rac-1 (setting [10]), at Rac-1 (setting [11]), at Rho-A (setting [12]) and on Rho-A (setting [13]) was 76 to 100% throughout. For the same compound, the “% inh of AKT phosphorylation in PANC-1” value in assay [1] was “<D>”.

For the compound `Cc1c(-c2ccn(C(C)C)n2)sc2nc(-c3nccn3C)nc(NCCC3CCC(=O)N3)c12` (racemic) [Compound 56, rac-5-(2-((6-(1-Isopropyl-1H-pyrazol-3-yl)-5-methyl-2-(1-methyl-1H-imidazol-2-yl)thieno[2,3-d]pyrimidin-4-yl)amino)ethyl)pyrrolidin-2-one], the inhibition at 20 µM at KRas G12C mutant (setting [2]) lay within 76 to 100%; on KRas G12C mutant (setting [3]), 76 to 100%; on KRas G12D mutant (setting [4]), 76 to 100%; at KRas G12D mutant (setting [5]), 26 to 50%; on KRas Q61H mutant (setting [6]), 76 to 100%; on KRas Q61H mutant (setting [7]), 51 to 75%. For the same compound, the inhibition at 20 µM at KRas wild type (setting [8]), on KRas wild type (setting [9]), at Rac-1 (setting [11]) and on Rho-A (setting [13]) was 76 to 100% each time. In assay [1], the “% inh of AKT phosphorylation in PANC-1” value is 0 (0% inhibition).

Take `Cc1c(-c2ccn(C(C)C)n2)sc2nc(-c3nccn3C)nc(N3CCC(COC(C)C)C3)c12` (racemic) [Compound 62, rac-4-(3-(Isopropoxymethyl)pyrrolidin-1-yl)-6-(1-isopropyl-1H-pyrazol-3-yl)-5-methyl-2-(1-methyl-1H-imidazol-2-yl)thieno[2,3-d]pyrimidine]: the inhibition at 20 µM on KRas G12C mutant (setting [2]) is 51 to 75%; at KRas G12D mutant (setting [4]), 51 to 75%; at KRas G12D mutant (setting [5]), 26 to 50%; at KRas Q61H mutant (setting [6]), 51 to 75%; at KRas Q61H mutant (setting [7]) it was 76 to 100%; at KRas wild type (setting [8]), 51 to 75%. Also, the inhibition at 20 µM on KRas wild type (setting [9]) was 51 to 75%; on Rac-1 (setting [11]), 1 to 25%; at Rho-A (setting [13]), 76 to 100%. Besides, in assay [1], the “% inh of AKT phosphorylation in PANC-1” value was “B (26-50% inhibition)”.

Regarding `COC[C@@H]1CC[C@@H]1CNc1nc(-c2nccn2C)nc2sc(-c3ccn(C(C)C)n3)c(C)c12` (racemic) [Compound 63, rac-6-(1-Isopropyl-1H-pyrazol-3-y)-N-(((1S,2R)-2-(methoxymethyl)cyclobutyl)methyl)-5-methyl-2-(1-methyl-1H-imidazol-2-yl)thieno[2,3-d]pyrimidin-4-amine], the inhibition at 20 µM was in the range of 26 to 50% at KRas G12C mutant (setting [2]); 26 to 50% at KRas G12C mutant (setting [3]); 51 to 75% on KRas G12D mutant (setting [4]); 51 to 75% at KRas G12D mutant (setting [5]); 26 to 50% at KRas Q61H mutant (setting [6]); 51 to 75% at KRas Q61H mutant (setting [7]). Further, the inhibition at 20 µM lay within 26 to 50% on KRas wild type (setting [8]), 51 to 75% on KRas wild type (setting [9]), 26 to 50% at Rac-1 (setting [11]) and 51 to 75% at Rho-A (setting [13]). For the same compound, the “% inh of AKT phosphorylation in PANC-1” value in assay [1] is “C (51-75% inhibition)”.

For the origin of these results see patent US20230227466A1, “SUBSTITUTED THIENOPYRIMIDINES THAT INTERACT WITH THE RAS SUPERFAMILY FOR THE TREATMENT OF CANCERS, INFLAMMATORY DISEASES, RASOPATHIES, AND FIBROTIC DISEASE” (SHY Therapeutics, LLC, priority 2020, published 2023).
